Patent US20260217652A1, “PHENYL-SUBSTITUTED HETEROARYL COMPOUND AND PHARMACEUTICAL COMPOSITION COMPRISING SAME, PREPARATION METHOD THEREFOR AND USE THEREOF” (SHANGHAI MEIYUE BIOTECH DEVELOPMENT CO., LTD., priority 2023, published 2026)
Like-named read-outs stand apart in the source and are kept apart here.

Legend:
[1] = In vitro liver microsome stability, mouse; assay type: in vitro ADME; conditions: liver microsomes, 0.5 mg/mL microsomes, 1 μM compound, NADPH, 37° C., read-out: Mouse liver microsomes Half-life T1/2
Method: (§1) The reference compound used in this experiment was Ketanserin, and the final concentration of microsomes in the experimental system was 0.5 mg/mL. The PBS buffer was a 50 mM K2HPO4 buffer. The concentration of the test compound was 1 μM. The microsomes were added to PBS, and the control/test compounds were respectively added to the corresponding reaction systems, mixed thoroughly, and pre-incubated in a 37° C. water bath for 5 minutes. The reaction was initiated by adding 20 mM NADPH solution under 37° C. water bath conditions (for the No NADPH samples, an equal volume of PBS solution was used as a substitute for the 20 mM NADPH solution). At the reaction time points of 0 min, 10 min, 30 mun, 60 min, and 90 min, 30 μL of reaction samples were taken from each reaction system (for the No NADPH samples, sampling was performed at 0 min and 90 min), and the reaction was immediately terminated by adding 300 μL of the internal standard acetonitrile solution. After centrifugation at 4000 rpm, the supernatant was taken and mixed thoroughly with an equal volume of pure water. The samples at each time point were analyzed by LC-MS/MS (AB Triple Quard 5500) to determine the compound content, and the T1/2 was calculated.

[2] = In vitro liver microsome stability, rat; assay type: in vitro ADME; conditions: liver microsomes, 0.5 mg/mL microsomes, 1 μM compound, NADPH, 37° C., read-out: Rat liver microsomes Half-life T1/2
Method: as §1

p38 MAPK/MK2 = biological target: T1, p38 MAPK/MK2 (Homo sapiens, UniProt Q16539); experiment: In vitro activity assay of p38 MAPK/MK2 (Z-LYTE kinase assay kit); assay type: biochemical; conditions: active p38α, inactive MK2, Ser/Thr 4; 1-hour reaction at 20° C.
T1 construct: purchased Carna (p38α); Abcam (MK2) 04-152; 79910
Method: (§2) The inhibitory effect of the compound on p38 MAPK/MK2 was evaluated using the Z-LYTE kinase assay kit (Thermo, PV3177). The test compound was dissolved in DMSO to obtain a 10 mM stock solution and stored at −20° C. for future use. The initial concentration of the compound was […], with 1% DMSO, 5-fold serial dilution, 8 concentrations, and duplicate wells. […] After a 1-hour reaction at 20° C., Development Reagent A diluted 2048-fold was added to each well, followed by incubation at room temperature for 1 hour. The reaction was terminated by adding 5 μL of stop buffer, and the plate was read using a microplate reader (Ex. 400 nm, Em. 445 nm; Ex. 400 nm, Em. 520 nm). The concentration-effect curve was fitted using GraphPad Prism 8 software, and the compound concentration resulting in 50% inhibition, IC50, was calculated.

[3] = In vitro liver microsome stability, human; assay type: in vitro ADME; conditions: liver microsomes, 0.5 mg/mL microsomes, 1 μM compound, NADPH, 37° C., read-out: Human liver microsomes Half-life T1/2
Method: as §1

[4] = system: TNF-α in human PBMC cells; experiment: In vitro TNF-α activity assay in human PBMC cell supernatant (LPS, ELISA); assay type: cell-based; conditions: LPS 100 ng/mL, read-out: p38 MAPK/TNF-α IC50
Method: The inhibitory effect of the compound on TNF-α in the supernatant of human PBMC cells was evaluated using an ELISA detection kit (Beyotime, PI518). The test compound was dissolved in DMSO to obtain a 10 mM stock solution and stored at −20° C. for future use. The initial concentration of the compound was […], followed by 5-fold serial dilution to obtain 6 concentrations. Cells were plated in duplicate, and ELISA was performed in single wells. The final concentration of DMSO was 0.4%. Alternatively, the initial concentration of the compound, dilution factor, number of concentration gradients, and replicates could be adjusted based on the specific screening conditions.
Fresh human peripheral blood mononuclear cells (PBMCs) (Sailybio) were seeded at a density of 2×10^5 cells per well in a 96-well plate (Corning, 3599), with each well containing 100 μL of RPMI-1640 (Gibco #A1049101)+10% FBS (Gibco, 10099141C), and incubated overnight at 37° C. under 5% CO2. Test compounds were added to the 96-well culture plate at a volume of 25 μL per well. After 1 hour, 5 μL of LPS was added to achieve a final concentration of 100 ng/mL. No LPS and compound were added to the negative control wells, and no compound was added to the positive control wells. The mixture was further incubated for 24 hours at 37° C. under 5% CO2. Subsequently, the cell culture supernatant was collected by centrifugation at 500 rcf for 8 minutes. The concentration of TNF-α was measured according to the operation manual of the ELISA kit. The concentration-effect curve was fitted using GraphPad Prism 8 software, and the compound concentration resulting in 50% inhibition, IC50, was calculated.

p38 MAPK/MK5 = biological target: T2, p38 MAPK/MK5 (Homo sapiens, UniProt Q16539); experiment: In vitro activity assay of p38 MAPK/MK5 (Z-LYTE kinase assay kit); assay type: biochemical; conditions: active p38α, inactive MK5, Ser/Thr 4; 4-hour reaction at 20° C.
T2 construct: purchased Carna (p38α); Abcam (MK5) 04-152; 217826
Method: as §2, with “MAPK/MK5” for “MAPK/MK2”, “4-hour” for “1-hour”, “µL” for “μL”

[5] = Pharmacokinetic evaluation in mice; assay type: in vivo; conditions: mouse, plasma; for AUC(0-t): read-out: Area under curve AUC0-24 h; for clearance: read-out: Clearance CL (converted); for half-life: read-out: Half-life T1/2 (converted); for C0: read-out: Initial concentration C0; for Vd: read-out: Volume of distribution Vd; for bioavailability: read-out: Bioavailability F %; for Cmax: read-out: Maximum concentration Cmax
Method: The compound was weighed and dissolved in a mixed solvent of DMAC: Solutol: PBS (1:1:8. After intravenous/gastric administration to mice, whole blood ([…]) was collected at 0.083, 0.25, 0.5, 1, 2, 4, 7, and 24 hours. The samples were anticoagulated with EDTA-K2, immediately centrifuged at 4000 rpm for 5 minutes at 4° C., and the supernatant was frozen in a −80° C. refrigerator. Plasma sample processing: The samples were precipitated with an internal standard-containing CH3CN precipitant, followed by centrifugation at 12700 rpm for 10 min. The supernatant was collected and analyzed by LC-MS/MS (AB Triple Quard 5500) to obtain the plasma drug concentration. The parameters were calculated using a non-compartmental model in Winnolin version 8.1.

[6] = intravenous injection group 1 mg/kg
[7] = po, intragastric administration group 5 mg/kg

T1 sequence (Q16539 whole entry): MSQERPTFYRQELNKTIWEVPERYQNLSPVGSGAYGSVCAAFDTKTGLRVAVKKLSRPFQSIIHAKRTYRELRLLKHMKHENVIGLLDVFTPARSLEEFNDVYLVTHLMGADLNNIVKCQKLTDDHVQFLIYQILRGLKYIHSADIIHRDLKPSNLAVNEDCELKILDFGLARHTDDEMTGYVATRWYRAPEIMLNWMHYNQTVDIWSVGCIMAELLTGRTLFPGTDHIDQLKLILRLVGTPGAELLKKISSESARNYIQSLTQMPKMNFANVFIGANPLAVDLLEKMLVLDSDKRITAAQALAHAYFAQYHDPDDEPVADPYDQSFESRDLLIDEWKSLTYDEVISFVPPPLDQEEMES
T1 sequence (P49137 whole entry partner): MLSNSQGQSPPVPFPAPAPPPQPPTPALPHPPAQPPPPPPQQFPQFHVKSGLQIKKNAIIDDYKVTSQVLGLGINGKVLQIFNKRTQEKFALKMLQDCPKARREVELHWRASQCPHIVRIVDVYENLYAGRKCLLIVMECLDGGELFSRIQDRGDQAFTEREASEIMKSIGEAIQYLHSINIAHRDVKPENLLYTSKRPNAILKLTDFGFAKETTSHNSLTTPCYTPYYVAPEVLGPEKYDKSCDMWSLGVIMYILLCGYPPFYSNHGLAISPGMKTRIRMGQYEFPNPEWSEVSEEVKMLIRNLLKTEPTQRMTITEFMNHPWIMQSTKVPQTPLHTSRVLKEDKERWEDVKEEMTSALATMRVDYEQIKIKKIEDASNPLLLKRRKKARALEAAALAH
T2 sequence (Q16539 whole entry): as the sequence (Q16539 whole entry) above

Row | SMILES | IC50 (p38 MAPK/MK2) [nM] | half-life at 1 μM [3] [h] | IC50 ([4]; Homo sapiens, PBMC, 24 h) [nM] | other results
1 | CNC(=O)c1cccc(-c2cc(-n3c(C)cc(OCc4ncc(F)cc4F)c(Cl)c3=O)c(C)cn2)c1F (single isomer, unassigned) [Compound 20-P2] | 0.27 | > 4.66 | – | half-life at 1 μM [1]: > 4.66 h; half-life at 1 μM [2]: > 4.66 h; IC50 ([4]; 24 hours): 4.2 nM
2 | Cc1cnc(-c2cccc(C(=O)N(C)C)c2)cc1-n1c(C)cc(OCc2ncc(F)cc2F)c(Cl)c1=O [Compound 3] | 21.7 | – | – | IC50 (p38 MAPK/MK5): > 10000 nM
3 | Cc1cnc(-c2cccc(S(C)(=O)=O)c2)cc1-n1c(C)cc(OCc2ncc(F)cc2F)c(Cl)c1=O [Compound 11] | 14.6 | > 4.66 | 18.4 | half-life at 1 μM [1]: 4.22 h; half-life at 1 μM [2]: 3.79 h
4 | CNC(=O)c1cccc(-c2cc(-n3c(C)cc(OCc4ncc(F)cc4F)c(Cl)c3=O)c(C)cn2)c1F [Compound 20] | 1.03 | – | – | IC50 ([4]; 24 hours): 8.68 nM
5 | Cc1cnc(-c2cccc(C(N)=O)c2)c(F)c1-n1c(C)cc(OCc2ncc(F)cc2F)c(Cl)c1=O [Compound 30-P1] | 0.16 | – | 8.68 | IC50 (p38 MAPK/MK5): 5660 nM; AUC(0-t) [5, 6]: 1100 ng·h/mL; clearance [5, 6]: 15.2 mL/min/kg; half-life [5, 6]: 0.47 h; C0 [5, 6]: 2410 ng/mL; Vd [5, 6]: 0.41 L/kg; AUC(0-t) [5, 7]: 2640 ng·h/mL; bioavailability [5, 7]: 48%; half-life [5, 7]: 3.31 h; Cmax [5, 7]: 1570 ng/mL
6 | Cc1cnc(-c2cccc(C(=O)N(C)C)c2)c(F)c1-n1c(C)cc(OCc2ncc(F)cc2F)c(Cl)c1=O [Compound 32] | 3.65 | – | – | IC50 (p38 MAPK/MK5): 6250 nM; IC50 ([4]; 24 hours): 2.89 nM
7 | Cc1cnc(-c2cccc(S(C)(=O)=O)c2)c(F)c1-n1c(C)cc(OCc2ncc(F)cc2F)c(Cl)c1=O [Compound 33-P1] | 0.056 | – | 2.93 | AUC(0-t) [5, 6]: 1580 ng·h/mL; clearance [5, 6]: 10.8 mL/min/kg; half-life [5, 6]: 0.98 h; C0 [5, 6]: 3200 ng/mL; Vd [5, 6]: 0.32 L/kg; AUC(0-t) [5, 7]: 2800 ng·h/mL; bioavailability [5, 7]: 36.9%; half-life [5, 7]: 1.99 h; Cmax [5, 7]: 3670 ng/mL
8 | Cc1cnc(-c2ccc(F)c([C@](C)(O)CO)c2)c(F)c1-n1c(C)cc(OCc2ncc(F)cc2F)c(Cl)c1=O [Compound 51-P2] | 0.71 | – | – | IC50 (p38 MAPK/MK5): 4490 nM
9 | Cc1cnc(-c2ccc(F)c(C(C)(C)O)c2)c(F)c1-n1c(C)cc(OCc2ncc(F)cc2F)c(Cl)c1=O [Compound 70-P1] | 0.38 | > 4.66 | 11.2 | –
10 | Cc1cnc(-c2ccc(F)c(C(C)(C)O)c2)cc1-n1c(C)cc(OCc2ncc(F)cc2F)c(Cl)c1=O [Compound 88-P2] | 2.11 | > 4.66 | – | –
11 | Cc1cnc(-c2ccc(F)c(C(C)(C)O)c2F)cc1-n1c(C)cc(OCc2ncc(F)cc2F)c(Cl)c1=O [Compound 111-P2] | 0.22 | > 4.66 | 1.43 | half-life at 1 μM [1]: > 4.66 h; half-life at 1 μM [2]: > 4.66 h
12 | Cc1cnc(-c2ccnc(C(C)(C)O)n2)cc1-n1c(C)cc(OCc2ncc(F)cc2F)c(Cl)c1=O [Compound C, reference compound] | – | – | 26.4 | –

Further lines, with some results ahead:

Row | IC50 (p38 MAPK/MK2) [nM] | half-life at 1 μM [3] [h] | SMILES | IC50 ([4]; Homo sapiens, PBMC, 24 h) [nM] | other results
13 | 0.13 | > 4.66 | Cc1cnc(-c2cccc([C@@](C)(O)CO)c2F)c(F)c1-n1c(C)cc(OCc2ncc(F)cc2F)c(Cl)c1=O [Compound 112-P1] | 0.44 | –
14 | 0.09 | > 4.66 | Cc1cnc(-c2ccc(F)c([C@@](C)(O)CO)c2F)c(F)c1-n1c(C)cc(OCc2ncc(F)cc2F)c(Cl)c1=O [Compound 113-P1] | 1.7 | –
15 | 0.1 | > 4.66 | CNC(=O)C(C)(O)c1cc(-c2ncc(C)c(-n3c(C)cc(OCc4ncc(F)cc4F)c(Cl)c3=O)c2F)ccc1F (stereo not drawn) [Compound 124-P2] | – | –
16 | 0.15 | > 4.66 | Cc1cnc(-c2ccc(F)c(C(C)(O)C(N)=O)c2)c(F)c1-n1c(C)cc(OCc2ncc(F)cc2F)c(Cl)c1=O (stereo not drawn) [Compound 128-P1] | – | –
17 | 11.7 | – | Cc1cnc(-c2cccc(C(C)(C)CO)c2F)cc1-n1c(C)cc(OCc2ncc(F)cc2F)c(Cl)c1=O [Compound 137] | 0.84 | –
18 | 0.794 | – | Cc1cc(OCc2ncc(F)cc2F)c(Cl)c(=O)n1-c1ccnc(-c2cccc(C(C)(C)O)c2F)c1 [Compound 141] | 14.1 | half-life at 1 μM [1]: > 4.66 h; half-life at 1 μM [2]: 2.51 h
19 | 1.19 | > 4.66 | [2H]C([2H])(Oc1cc(C)n(-c2cc(-c3ccc(F)c([C@@](C)(O)CO)c3F)ncc2C)c(=O)c1Cl)c1ncc(F)cc1F [Compound 145-P1] | 8.51 | half-life at 1 μM [1]: > 4.66 h; half-life at 1 μM [2]: > 4.66 h
20 | 1.43 | > 4.66 | [2H]C([2H])(Oc1cc(C)n(-c2cc(-c3cccc([C@@](C)(O)CO)c3F)ncc2C)c(=O)c1Cl)c1ncc(F)cc1F [Compound 146-P1] | 3.38 | half-life at 1 μM [1]: 2.29 h; half-life at 1 μM [2]: > 4.66 h
21 | 1.56 | – | Cc1cnc(-c2cccc([C@@H](O)CO)c2F)cc1-n1c(C)cc(OCc2ncc(F)cc2F)c(Cl)c1=O [Compound 151-P1] | 12.9 | –
